Source: ChEMBL document CHEMBL3091384, “Chemical probes to study ADP-ribosylation: synthesis and biochemical evaluation of inhibitors of the human ADP-ribosyltransferase ARTD3/PARP3” (J Med Chem, 2013)

How the values were obtained:
[1] = molecular target: T1, Poly [ADP-ribose] polymerase 1 (Homo sapiens, UniProt P09874)
[2] = test system: Poly [ADP-ribose] polymerase 14, ARTD8/PARP14 (Homo sapiens)
Homo sapiens = species: Homo sapiens; assay: Binding affinity to […] (unknown origin) assessed as change in melting temperature by thermal stabilization assay
[3] = molecular target: Poly [ADP-ribose] polymerase 2 (Homo sapiens) (UniProt Q9UGN5)
Chain of Poly [ADP-ribose] polymerase 2 (Homo sapiens) (Q9UGN5 whole entry): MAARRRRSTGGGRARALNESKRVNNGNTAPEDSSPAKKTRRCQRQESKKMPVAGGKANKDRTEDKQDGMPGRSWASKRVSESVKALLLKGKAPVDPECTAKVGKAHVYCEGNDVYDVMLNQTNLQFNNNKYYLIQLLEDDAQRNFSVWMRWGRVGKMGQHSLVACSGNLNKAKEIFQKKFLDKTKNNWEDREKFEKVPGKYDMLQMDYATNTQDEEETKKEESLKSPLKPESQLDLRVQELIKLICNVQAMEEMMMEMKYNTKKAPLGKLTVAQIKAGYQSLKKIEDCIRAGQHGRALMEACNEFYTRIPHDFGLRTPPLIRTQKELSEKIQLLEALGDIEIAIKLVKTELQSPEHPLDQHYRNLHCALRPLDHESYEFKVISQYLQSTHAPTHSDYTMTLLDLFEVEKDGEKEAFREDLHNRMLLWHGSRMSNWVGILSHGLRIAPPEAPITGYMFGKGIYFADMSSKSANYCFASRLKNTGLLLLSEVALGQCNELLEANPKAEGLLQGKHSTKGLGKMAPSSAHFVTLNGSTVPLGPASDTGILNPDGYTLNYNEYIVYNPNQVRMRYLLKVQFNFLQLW

[4] = molecular target: T1, Poly [ADP-ribose] polymerase 1; remark: listed apart in the source

T1 sequence (P09874 whole entry): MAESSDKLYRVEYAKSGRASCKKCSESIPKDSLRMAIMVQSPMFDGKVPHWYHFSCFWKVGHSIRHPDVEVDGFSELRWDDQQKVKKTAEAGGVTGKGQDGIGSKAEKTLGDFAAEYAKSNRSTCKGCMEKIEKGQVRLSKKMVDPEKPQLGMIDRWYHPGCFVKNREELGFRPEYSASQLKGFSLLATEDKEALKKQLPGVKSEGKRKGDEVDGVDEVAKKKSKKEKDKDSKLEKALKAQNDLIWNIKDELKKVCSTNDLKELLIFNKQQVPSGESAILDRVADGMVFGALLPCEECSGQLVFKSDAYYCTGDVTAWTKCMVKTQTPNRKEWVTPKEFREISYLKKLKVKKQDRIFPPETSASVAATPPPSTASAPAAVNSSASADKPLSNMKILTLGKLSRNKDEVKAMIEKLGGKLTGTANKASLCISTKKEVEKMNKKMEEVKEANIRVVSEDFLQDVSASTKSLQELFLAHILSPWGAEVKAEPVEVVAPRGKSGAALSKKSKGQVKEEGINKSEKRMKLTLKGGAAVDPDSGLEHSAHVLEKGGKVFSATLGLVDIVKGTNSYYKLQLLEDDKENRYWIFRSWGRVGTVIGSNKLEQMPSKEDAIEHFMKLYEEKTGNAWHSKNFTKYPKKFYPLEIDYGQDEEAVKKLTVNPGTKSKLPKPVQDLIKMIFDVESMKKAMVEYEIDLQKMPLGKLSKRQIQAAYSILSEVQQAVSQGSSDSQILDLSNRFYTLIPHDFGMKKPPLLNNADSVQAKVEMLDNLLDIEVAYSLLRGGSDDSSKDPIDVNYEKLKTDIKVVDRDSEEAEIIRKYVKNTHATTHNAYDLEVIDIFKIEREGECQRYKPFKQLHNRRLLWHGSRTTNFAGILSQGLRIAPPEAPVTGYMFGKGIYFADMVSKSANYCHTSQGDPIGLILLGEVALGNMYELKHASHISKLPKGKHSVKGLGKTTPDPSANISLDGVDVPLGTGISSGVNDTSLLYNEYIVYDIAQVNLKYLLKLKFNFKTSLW

Row | IC50 [1] [nM] | ΔTm [2] [°C] | ΔTm (Homo sapiens) [°C] | ΔTm [3] [°C] | ΔTm [4] [°C] | Compound
1 | 510 | 0.18 | 0.84 | 1.39 | 2.38 | O=C(CCc1nc2ccccc2c(=O)[nH]1)N[C@H]1CCc2ccccc21
2 | 780 | 0.1 | 0.8 | 1.92 | 2.37 | O=C(CCc1nc2ccccc2c(=O)[nH]1)N[C@@H]1CCc2ccccc21
